From US20230137849A1, “USE OF A COMPOUND OF THE DIURETICS CLASS FOR TREATING CANCER” (AZELEAD, priority 2017, published 2023)

System: 4T1 cells
Assay: 4T1 cell migration test (scratch test)
Format: cell-based, mouse
Conditions: lowest concentration 10 nM, t=24 h, FIG. 8
Protocol: The cell migration assays on the 4T1 cell line are carried out in vitro in 12-well plates on the 4T1 cell line. The cells are maintained in DMEM culture medium supplemented with 10% calf serum (FCS) and incubated at 37° C. and 5% CO2. The cell monolayer is injured with a 10 μ pipette tip. The medium is aspirated and replaced by a medium containing the compounds to be tested at the concentrations described. The wells are imaged using a microscope and the injured surface is repaired at the indicated times to highlight the cell anti-migratory power of the tested chemical compounds. The average of the measurements obtained is compared with the control wells: (average value of the compounds treated/average value of the controls)*100=% of the average value.
In order to validate the anti-migratory potential of althiazide, we carry out a “scratch test” on 4T1 cells in culture according to the cell migration test protocol on the 4T1 cell line described in the Materials and Methods section. This test is used to evaluate the migratory power of a chemical compound on cells in culture. […]
The area of the injured area is measured for each well and the percentage of migration is calculated under each condition.

C=CCSCC1Nc2cc(Cl)c(S(N)(=O)=O)cc2S(=O)(=O)N1 (racemic) [althiazide]
decrease in cell migration: 40%
